Measured values taken from patent US20100278849A1, “PROSTATIC ACID PHOSPHATASE ANTIGENS” (priority 2004, published 2010).
Entries after “also recorded” stand apart in the source; their conditions may differ.

Assays:
Assay type in all cases: cell-based
HLA-A2*0201 = HLA-A2*0201 (Homo sapiens, UniProt P04439, D140Y/D185E/D98H/E176V/E277Q/G131W/G231S/I119V/I121R/I166T/I218V/L300P/L318F/N151K/N90K/P208A/P217A/Q86G/Q94H/R138H/R169H/T345S); details: peptide at 100, 10 and 1 μM; compared with positive control influenza M1 peptide; three independent experiments
HLA-DRβ1*0401 = test: Proliferation of splenocytes from immunised HLA-DR4 mice with peptide-pulsed BM-DC (tritiated thymidine); details: for effect of anti-HLA-DR antibody (L243) on proliferation: not blocked by isotype control; for proliferation of splenocytes from immunised HLA-DR4 mice: re-stimulated in vitro with peptide for 5 days; for number of HLA-DR4 mice whose splenocytes demonstrated specific proliferation: responding/total mice, after re-stimulation in vitro with relevant peptide
Procedure: (§1) HLA-A2.1/K^b mice were immunised with an emulsion consisting of 100 μg of the putative class-I peptide epitope and 100 μg of non-specific class-II peptide derived from hepatitis B virus in 50% incomplete Freund's adjuvant (IFA). HLA-DR4- and HLA-DR1-transgenic mice were immunised twice at one week interval with 100 μg of class-II peptide emulsified in 50% incomplete Freund's adjuvant (IFA) and 50% PBS. All vaccine were delivered as a 100 μl intradermal bolus inoculum at the base of the tail.
(§2) 0DC were generated using a method adapted from Inaba et al (Inaba et al. 1992). Briefly, femurs and tibias were harvested aseptically from non-immunised DR1 or DR4 transgenic mice and placed in sterile PBS supplemented with 50 IU/ml penicillin, 50 μg/ml streptomycin, and 0.25 μg/ml fungizone. The marrow was flushed out of the bone using BM-DC media (RPMI 1640 medium supplemented with 2 mM glutamine, 5% FCS, 10 mM Hepes, 501M 2-ME, 50 μg/ml penicillin, 50 μg/ml streptomycin, 0.25 μg/ml fungisone and 10% of supernatant collected from X-63 cells). The cells were washed once in BM-DC media and plated in 24-well plates at 10^6/well in 1 ml DC media and incubated at 37° C. in a 5% CO2 humidified atmosphere. On days 2 and 4, the non-adherent cells (T cells, B cells, granulocytes) were removed, and the remaining cells were cultured in fresh DC medium. After 7-9 days, clusters of loosely adherent DC were dislodged and collected by gently pipetting, before being washed and seeded in 24-well plates at 0.5×10^6 cells/well in 1 ml DC media. Peptides were added at 1 μg/well and the plates were incubated at 37° C. 1 μg/ml of LPS was added after 5 hours, and the plates were incubated overnight at 37° C. in a 5% CO2 in air-humidified atmosphere.
(§3) After 6 days, the spleens from immunised animals were collected and the cells flushed out using T cell media (RPMI+10% FCS+20 mM HEPES buffer+50 μM 2-mercaptoethanol+50 U/ml penicillin/streptomycin+0.25 μg/ml fungizone). The remaining splenic tissue was digested using an enzyme cocktail (0.1 U/ml DNAase (Sigma)+1.6 mg/ml collagenase (Sigma)) for 1 hour at 37° C. The cell suspension obtained was pooled with the flushed cells, washed once, and the splenocytes were plated in 24 well plates with 10 μg/ml of peptide at a density of 2.5×10^6/ml for FVB/N-DR1 or 3.5×10^6/ml for C57BL/6-DR4. Cells were also cultured with an irrelevant peptide as a control. To measure cytokine production, culture supernatants were collected on day 2 and 5 of the culture for the measurement of cytokine by ELISA.
[…] CD8+ T cells were depleted from the cell suspension using anti-CD8+ antibody coupled with magnetic beads (Dynal, UK) as per the manufacturers instructions. Cells were then washed in PBS and resuspended at 5×10^5/ml in T cell medium. 100 μl of T cells was then added to all wells. Anti-DR antibody (L243) or isotype control were added to some wells to confirm the MHC specificity of the T-cell response. LPS-treated dendritic cells were harvested, washed and incubated in 1 ml of DC medium with the addition of 10 íg of peptide at 37° C. for 5 hours. After washing, 10^3 peptide-pulsed DC were added to the relevant wells of lymphocyte cultures in 50 íl media. These plates were then incubated for 3 days at 37° C. in a 5% CO2 in air-humidified atmosphere. Tritriated thymidine was then added to the culture and incubated again for 18 hours. Plates were harvested onto 96 Uni/Filter (Packard), the scintillation liquid (Microscint 0, Packard) was added and the plates were counted on a Top-Count counter (Packard). Results are expressed in counts per minute (cpm) and as a means of the triplicate wells. Statistical analysis was performed using unpaired Student's t test. […]

HLA-DRβ1*0101 = test: Proliferation of splenocytes from immunised HLA-DR1 mice with peptide-pulsed BM-DC (tritiated thymidine); details: for proliferative response of splenocytes from HLA-DR1 mice: FVB/N-DR1 / HLA-DRβ1*0101 transgenic mice; for number of HLA-DR1 mice whose splenocytes demonstrated specific proliferation: responding/total mice, after re-stimulation in vitro with relevant peptide
Procedure: as §1, §2, §3
Splenocytes from immunised animals cultured for 6 days in the presence of 10 μg of the test peptide were harvested, washed and counted. CD8+ T cells were depleted from the cell suspension using anti-CD8+ antibody coupled with magnetic beads (Dynal, UK) as per the manufacturers instructions. Cells were then washed in PBS and resuspended at 5×10^5/ml in T cell medium. 100 μl of T cells was then added to all wells. Anti-DR antibody (L243) or isotype control were added to some wells to confirm the MHC specificity of the T-cell response. LPS-treated dendritic cells were harvested, washed and incubated in 1 ml of DC medium with the addition of 10 íg of peptide at 37° C. for 5 hours. After washing, 10^3 peptide-pulsed DC were added to the relevant wells of lymphocyte cultures in 50 íl media. […] Plates were harvested onto 96 Uni/Filter (Packard), the scintillation liquid (Microscint 0, Packard) was added and the plates were counted on a Top-Count counter (Packard). […]

IFN-γ [1] = test: Cytokine production by splenocytes of immunised FVB/N-DR1 mice, ELISA
Procedure: as §3
(§4) Aliquots of supernatants were removed from CTL cultures on days 1 and 5 and on days 2 and 5 from CD4′ T cell cultures and stored at −20° C. until required. ELISA was used to quantitate concentrations of murine IFN-γ and IL-5 (R&D systems, UK).

IFN-γ [2] = test: Cytokine production by splenocytes of immunised C57BL/6-DR4 mice, ELISA; details: relevant versus irrelevant peptide
Procedure: as §3, §4
We further investigated HLA-DR class-II restricted responses to PAP peptides that were predicted to bind to HLA-DR1 and HLA-DR4 according to the evidence-based computer assisted algorithm […]. The peptides displaying high binding scores for both HLA-DR alleles were selected and further studied (Table 1). C57BL/6-DR4 mice were immunised with these predicted HLA-DR-restricted PAP and the proliferative and IFN-γ response to peptide stimulation in vitro was monitored by proliferation assays and cytokine measurements. PAP. 64 and PAP.

Sequence	binding to HLA-A2 (T2 cells) (HLA-A2*0201)	effect of anti-HLA-DR antibody (L243) on proliferation (HLA-DRβ1*0401)	effect of anti-HLA-DR antibody (L243) on proliferation (HLA-DRβ1*0401; listed as PAP. 207)	proliferation of splenocytes from immunised HLA-DR4 mice (HLA-DRβ1*0401)	number of HLA-DR4 mice whose splenocytes demonstrated specific proliferation (HLA-DRβ1*0401)	number of HLA-DR4 mice whose splenocytes demonstrated specific proliferation (HLA-DRβ1*0401; listed as PAP. 207)	proliferative response of splenocytes from HLA-DR1 mice (HLA-DRβ1*0101)	number of HLA-DR1 mice whose splenocytes demonstrated specific proliferation (HLA-DRβ1*0101)	IFN-γ or IL-50 (cytokine) production of splenocytes (IFN-γ [1])	IFN-γ production by splenocytes (IFN-γ [2])	effect of anti-HLA-DR antibody (L243) on proliferation (HLA-DRβ1*0401; listed as PAP. 64)	number of HLA-DR4 mice whose splenocytes demonstrated specific proliferation (HLA-DRβ1*0401; listed as PAP. 64)
IMYSAHDTTV (listed as Homo sapiens) [PAP.284]	Weak binding											
ALASCFCFFC (listed as Homo sapiens) [PAP.15]	no significant binding											
SKVYDPLYSESVHNF (listed as Homo sapiens) [PAP.207]		inhibited by the addition of L243 antibody	blocked in the presence of L243 antibody	Specific proliferation	1/6	1 out of 6	failed, with the exception of one out six experiments	0/5	failed, with the exception of one out six experiments	not produced specifically		
VLAKELKFV (listed as Homo sapiens) [PAP.30, class-I PAP peptide already known in the art (Peshwa, 1998), reference compound]	strong binding; also recorded: moderate HLA-A2 binding											
PQGFGQLTQLGMEQH (listed as Homo sapiens) [PAP.64]		inhibited by the addition of L243 antibody		Specific proliferation	2/5		failed, with the exception of one out six experiments	1/6	failed, with the exception of one out six experiments	not produced specifically	blocked in the presence of L243 antibody	2 out of 5
